According to ChEMBL document CHEMBL1148047, “Two steroidal alkaloids from a sponge, Corticium sp” (J Nat Prod, 1994):
In brackets after ≈: the same amount, converted by molar mass.

Assays:
[1] = system: HT-29; experiment: Cytotoxicity against human HT-29 cells; type: functional, cell-based
[2] = system: Lymphocyte; experiment: Ratio of immunomodulatory activity against lymphocytes by lymphocyte viability assay to immunomodulatory activity against lymphocytes by mixed lymphocyte reaction method; type: functional
[3] = system: Bacillus subtilis; experiment: Antimicrobial activity against Bacillus subtilis at 50 ug/disk; type: functional; settings: read-out: IZ
[4] = system: Lymphocyte; experiment: Immunomodulatory activity against lymphocytes by lymphocyte viability assay; type: functional
[5] = system: Candida albicans; experiment: Antimicrobial activity against Candida albicans at 50 ug/disk; type: functional; settings: read-out: IZ
[6] = system: P388; experiment: Cytotoxicity against mouse P388 cells; type: functional, cell-based
[7] = system: Lymphocyte; experiment: Immunomodulatory activity against lymphocytes by mixed lymphocyte reaction method; type: functional
[8] = system: A549; experiment: Cytotoxicity against human A549 cells; type: functional, cell-based
[9] = system: SK-MEL-28; experiment: Cytotoxicity against human SK-MEL-28 cells; type: functional, cell-based

CC(C)=C1CCN=C1C[C@@H](C)[C@H]1CC[C@H]2C3=CC[C@H]4[C@@H](O)[C@@H](N(C)C)CC[C@]4(C)[C@H]3CC[C@]12C [LOKYSTEROLAMINE A]
IC50 [1]: 1 µg/mL (≈ 2.14 µM)
Ratio IC50 [2]: >187
zone of inhibition at 50 µg/disc [3]: 19 mm
Activity [4]: >25
zone of inhibition at 50 µg/disc [5]: 11 mm
IC50 [6]: 0.5 µg/mL (≈ 1.07 µM)
Activity [7]: 0.13
IC50 [8]: 0.5 µg/mL (≈ 1.07 µM)
IC50 [9]: 5 µg/mL (≈ 10.7 µM)

CC(=O)N[C@H]1CC[C@]2(C)[C@H]3CC[C@]4(C)[C@@H]([C@H](C)CC5=NCCC5=C(C)C)CC[C@H]4C3=CC[C@H]2[C@H]1O [LOKYSTEROLAMINE B]
IC50 [1]: 1 µg/mL (≈ 2.08 µM)
zone of inhibition at 50 µg/disc [3]: 8 mm
Activity [4]: >12.5
zone of inhibition at 50 µg/disc [5]: 0 mm
IC50 [6]: 1 µg/mL (≈ 2.08 µM)
Activity [7]: 0.48
IC50 [8]: 0.5 µg/mL (≈ 1.04 µM)
IC50 [9]: > 2 µg/mL
